Where two headings read alike, the source gives them in different places.
Key:
PARK7 [1] = molecular target: T1, PARK7 (Homo sapiens, UniProt Q99497); assay: Cell-based competition assay with probe JYQ-92 in HEK293T cells; settings: live HEK293T cells, 5 μM, 24 h
T1 sequence (Q99497 1-189): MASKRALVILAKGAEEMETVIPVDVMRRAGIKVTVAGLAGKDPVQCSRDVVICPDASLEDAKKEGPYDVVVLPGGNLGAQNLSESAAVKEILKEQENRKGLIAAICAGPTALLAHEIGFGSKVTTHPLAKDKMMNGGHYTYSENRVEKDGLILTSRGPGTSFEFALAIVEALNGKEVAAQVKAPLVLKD
Method: Samples were resolved by SDS-PAGE and analyzed by fluorescence scanning and Western blotting (Figure 2B). The target engagement of cellular PARK7 is reflected by the disappearance of the PARK7 labeling band in the fluorescence gel scan and by the loss of the shifted probe-labeled PARK7 band in the Western blot.
HEK293T cells were treated with the indicated concentrations of indicated inhibitors for indicated incubation time.
Figure S1. Assessment of the cell permeability of JYQ -88. (A) Structure of JYQ-92.
(B) Target engagement of JYQ-88 in HEK293T cells. HEK293T cells were incubated […]
with PARK7 probe JYQ-92 fo r 1 h at 37 °C. The reactions were stopped by the addition of NuPAGE™ LDS sample buffer (4x). Samples were resolved by SDS -PAGE using […]
fluorescence scanning on a Typhoon FLA 9500 (GE Healthcare Life Sciences) using […]
The disappearance of the JYQ-92-labeled band in […]
of JYQ-88 is used as a measurement of cellular PARK7 engagement with JYQ -88.
(§1) (1 picture or pasted object on this page, not shown here)

PARK7 [2] = molecular target: T1, PARK7; assay: Hit validation and pure-compound testing in the PARK7 FP assay with JYQ-107; format: biochemical; settings: for inhibition at 0.25 µM: read-out: % Inhibition 0.25 µM; for potency in FP assay compared to JYQ-88: 0.25 and 1 μM; for inhibition at 0.5 µM: read-out: % Inhibition 0.5 µM
DUBs = assay: Activity-based DUB profiling with Rho-Ub-PA probe in HEK293T cells; format: cell-based, human; settings: 5 µM, 24 h
Method: Figure S3. Activity evaluation of inhibitors against DUBs in HEK293T cells. (A ) Inhibitors from structure modification. (B) Inhibitors from HTS. HEK293T cells were […]
incubation with Rho- Ub-PA probe for 30 min at 37 °C. Samples were resolved by SDS - […]
and visualized by fluorescence scanning on a Typhoon FLA 9500 (GE Healthcare Life […]
Nitrocellulose membranes and Western blot analysis.
as §1

PARK7 [3] = molecular target: T1, PARK7; assay: High-throughput screen of the crude compound library, PARK7 fluorescence polarization (FP) assay with FP reagent JYQ-107; format: biochemical; settings: 1.25 µM, crude compound library, read-out: HTS FP assay %Inhibition (1.25 µM)
PARK7 [4] = molecular target: T1, PARK7; assay: biochemical; set-up: Fluorescence polarization competition: residual PARK7 labelling by JYQ-107 probe after 1 h preincubation, % inhibition; settings: sheet Validation pure compounds
Method: The 15 pure compounds from the two different approaches (5 compounds from structure modification and 10 compounds from HTS) were assessed for their potency to inhibit PARK7 at 0.25 and 1 μM final concentrations using the FP assay (Figure 2A). […] Fifty four compounds showing inhibition above 90% were picked and checked at three different concentrations. Using a Labcyte Echo550 acoustic dispenser, 20, 10, and 5 nL of 1 mM compound stock solutions were transferred from the source plates into an empty 384-well plate to obtain 1, 0.5, 0.25 μM final concentrations. […] The relative loss of FP signal compared with reference controls (5 mM NEM, 100% inhibition, and DMSO, 0% inhibition) was used to calculate the remaining enzyme activity. The inhibition percentage of these 54 compounds was plotted as heatmaps using Graphpad Prism 9.0.1 software. […] Stock solutions of 0.26 μM PARK7 and 80 nM JYQ-107 were prepared. Using a Labcyte Echo550 acoustic dispenser, 10 nL of 1 mM DMSO stock solutions of the library compounds was transferred from the source plates into the empty 1536-well screening plates to obtain a 1.25 μM final compound concentration. Next, PARK7 (6 μL, final concentration 0.2 μM) was dispensed using a Biotek MultiflowFX [compound left out] dispenser and incubated for 2 h, followed by dispensing the probe JYQ-107 (2 μL, final concentration 20 nM). […] The percentage inhibition of each compound was calculated from the FP values, normalized to the positive (5 mM N-ethylmaleimide, 100% inhibition) and negative (DMSO, 0% inhibition) controls.

Row | Compound | cellular target engagement of PARK7 (PARK7 [1]) | inhibition at 0.25 µM (PARK7 [2]; pure compounds) [%] | inhibition at 1 µM (PARK7 [2]; pure compounds) [%] | potency in FP assay compared to JYQ-88 (PARK7 [2]; pure compounds) | inhibition of DUBs in cells (DUBs) | inhibition at 1.25 µM (PARK7 [3]) [%] | inhibition at 0.25 µM (PARK7 [2]; crude compounds) [%] | inhibition at 0.5 µM (PARK7 [2]; crude compounds) [%] | inhibition at 1 µM (PARK7 [2]; crude compounds) [%] | inhibition at 1.25 µM (PARK7 [3]; FP reagent JYQ-107) [%] | inhibition at 0.25 µM (PARK7 [4]) [%] | inhibition at 1 µM (PARK7 [4]) [%]
1 | CN1CCN(CC(=O)N2CCc3nc(NC(=O)[C@@H]4CCN(C#N)C4)sc3C2)CC1 [Compound 2, (R)-1-Cyano-N-(5-(2-(4-methylpiperazin-1-yl)acetyl)-4,5,6,7-tetrahydrothiazolo[5,4-c]pyridin-2-yl)pyrrolidine-3-carboxamide] | did not bind with PARK7 in cells | 53.7 | 83.7 | did not improve |  |  |  |  |  |  |  | 
2 | Cc1csc(-c2cccc(C(=O)N3CCc4nc(NC(=O)[C@@H]5CCN(C#N)C5)sc4C3)c2)n1 [Compound 334, (R)-1-Cyano-N-(5-(3-(4-methylthiazol-2-yl)benzoyl)-4,5,6,7-tetrahydrothiazolo[5,4-c]pyridine-2-yl)pyrrolidine-3-carboxamide] |  | 84.2 | 95.6 |  | showed inhibition of one or more DUBs, mainly UCHL1 | 89.4 | 68.5 | 86.9 | 97.3 |  |  | 
3 | Cc1cc(C(=O)N2CCc3nc(NC(=O)[C@@H]4CCN(C#N)C4)sc3C2)ccc1Br [Compound 415, (R)-N-(5-(4-Bromo-3-methylbenzoyl)-4,5,6,7-tetrahydrothiazolo[5,4-c]pyridin-2-yl)-1-cyanopyrrolidine-3-carboxamide] |  | 68.3 | 92.6 |  | showed inhibition of one or more DUBs, mainly UCHL1 |  | 58 | 79.8 | 95.6 | 93.1 |  | 
4 | N#CN1CC[C@@H](C(=O)Nc2nc3c(s2)CN(C(=O)c2cccc(O)c2)CC3)C1 [compound 3] |  |  |  |  |  |  |  |  |  |  | 58.4 | 90.1
5 | N#CN1CC[C@@H](C(=O)Nc2nc3c(s2)CN(C(=O)c2cccc(S(=O)(=O)NCCc4ccc(S(N)(=O)=O)cc4)c2)CC3)C1 [compound 199] |  |  |  |  |  |  |  |  |  |  | 80.7 | 94.6
6 | N#CN1CC[C@@H](C(=O)Nc2nc3c(s2)CN(C(=O)c2cccc(S(=O)(=O)NCC4CCCO4)c2)CC3)C1 (stereo partly shown) [compound 55] |  |  |  |  |  |  |  |  |  |  | 64.7 | 93.5
7 | N#CN1CC[C@@H](C(=O)Nc2nc3c(s2)CN(C(=O)c2cnc(-c4cccs4)s2)CC3)C1 [Compound 108, (R)-1-Cyano-N-(5-(2-(thiophen-2-yl)thiazole-5-carbonyl)-4,5,6,7-tetrahydrothiazolo[5,4-c]pyridin-2-yl)pyrrolidine-3-carboxamide] |  | 67.9 | 93.1 |  | showed inhibition of one or more DUBs, mainly UCHL1 | 90.8 | 64.2 | 85.7 | 98.5 |  |  | 
8 | N#CN1CC[C@@H](C(=O)Nc2nc3c(s2)CN(C(=O)CN2CCOCC2)CC3)C1 [Compound 1, (R)-1-Cyano-N-(5-(2-morpholinoacetyl)-4,5,6,7-tetrahydrothiazolo[5,4-c]pyridin-2-yl)pyrrolidine-3-carboxamide] | did not bind with PARK7 in cells | 62.8 | 87.7 | did not improve |  |  |  |  |  |  |  | 
9 | N#CN1CC[C@@H](C(=O)Nc2nc3c(s2)CN(C(=O)CC2CCNCC2)CC3)C1 [Compound 5, (R)-1-Cyano-N-(5-(2-(piperidin-4-yl)acetyl)-4,5,6,7-tetrahydrothiazolo[5,4-c]pyridin-2-yl)pyrrolidine-3-carboxamide] | did not bind with PARK7 in cells | 38.5 | 71 | lowered |  |  |  |  |  |  |  | 
10 | N#CN1CC[C@@H](C(=O)Nc2nc3c(s2)CN(C(=O)CN2CCNCC2)CC3)C1 [Compound 4, (R)-1-Cyano-N-(5-(2-(piperazin-1-yl)acetyl)-4,5,6,7-tetrahydrothiazolo[5,4-c]pyridin-2-yl)pyrrolidine-3-carboxamide] | did not bind with PARK7 in cells | 40.2 | 59.9 | lowered |  |  |  |  |  |  |  | 

Source: paper PMC11129182, “Development of Inhibitors, Probes, and PROTAC Provides a Complete Toolbox to Study PARK7 in the Living Cell” (Journal of Medicinal Chemistry, 2024)
